Experimental data as given in patent publication US6753337B2, “Alkynyl containing hydroxamic acid compounds as matrix metalloproteinase/tace inhibitors” (Wyeth Holdings Corporation, priority 1999, dated 2004).
Structures can show the parent of a compound that is named as a salt.

Legend:
MMP-13 = MMP-13 (Homo sapiens, UniProt P45452); experiment: MMP-13 inhibition (thiopeptide or fluorescent peptide substrate); assay type: biochemical; settings: read-out: MMP13 IC50
Summary of the method: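 Human recombinant MMP-1, MMP-9 or MMP-13 was run either with a thiopeptide substrate plus DTNB (1 mM working dilution) in 50 mM HEPES pH 7.5, 5 mM CaCl2 (colorimetric), or with a quenched fluorescent peptide in HCBC buffer pH 7.0. Reactions started with substrate; the rate slope was compared with control by Dunnett's test.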

THP-1 cells = experiment: Human monocytic THP-1 cell differentiation assay for soluble proteins (THP-1 soluble protein assay); assay type: cell-based; settings: LPS-stimulated THP-1 cells, soluble protein not given
Description: Mitogenic stimulation of THP-1 cells cause differentiation into macrophage like cells with concomitant secretion of tumor necrosis factor (TNF-α) and TNF receptor (TNF-R p75/80 and TNF-R p55160) and Interleukin-8 (IL-8), among other proteins. In addition, non-stimulated THP-1 cells shed both the p75/80 and the p55/60 receptors over time. The release of membrane bound TNF-α and possibly TNF-R p75/80 and TNF-R p55/60, but not IL-8, is mediated by an enzyme called TNF-α converting enzyme or TACE.
THP-1 cells (from ATCC) are a human monocytic cell line which were obtained from the peripheral blood of a person with acute monocytic leukemia. They can be grown in culture and differentiated into macrophage like cells by stimulation with mitogens.
Each vial of cells are cultured for about two weeks prior to being used for an assay and then are used for only 4 to 6 weeks to screen compounds.
Cell exposure to DMSO was limited to 0.1% final concentration. […] Compounds can be evaluated for their effect on basal (non-stimulated) shedding of the receptors by replacing the LPS with […] of THP-1 media.
Plates are placed into an incubator set at 5% CO2 and at 37° C. After 4 hours of incubation, […] of tissue culture supernatant (TCS) is removed for use in an TNF-α ELISA. Following 24 hours of incubation, […] of TCS is removed and used for analysis in TNF-R p75/80, TNF-R p55160 and IL-8 ELISAs.
In addition, at the 24 hours timepoint, and the cells for each treatment group are collected by resuspension in 500 μl/well of THP-1 media and transferred into a FACS tube. […] The samples are run on a Becton Dickinson FaxCaliber FLOW cytometry machine and the amount of dye taken up by each cell is measured in the high red wavelength (FL3). Only cells with compromised membranes (dead or dying) can take up PI. The percent of live cells is calculated by the number of cells not stained with PI, divided by the total number of cells in the sample. The viability values calculated for the drug treated groups were compared to the viability value calculated for the vehicle treated mitogen stimulated group (“vehicle positive control”) to determine the “percent change from control”. This “percent change from control” value is an indicator of drug toxicity.
The quantity of soluble TNF-α, TNF-R p75/80 and TNF-R p55160 and IL-8 in the TCS of the THP-1 cell cultures are obtained with commercially available ELISAs from R&D Systems, by extrapolation from a standard curve generated with kit standards. The number of cells that either take up or exclude PI are measured by the FLOW cytometry machine and visualized by histograms using commercially available Cytologic software for each treatment group including all controls.
Biological variability in the magnitude of the response of THP-1 cell cultures requires that experiments be compared on the basis of percent change from “vehicle positive control” for each drug concentration. Percent change in each soluble protein evaluated from the “vehicle positive control” was calculated for each compound concentration with the following formula: [formula]
For the soluble protein (TNF-α, p75/80, p55/60, IL-8) studies under stimulated conditions, the mean pg/ml of duplicate wells were determined and the results expressed as percent change from “vehicle positive control”. For the soluble protein (p75/80 and p55/60 receptors) studies under non-stimulated conditions, the mean pg/ml of duplicate wells were determined and the results expressed as percent change from “vehicle positive control” utilizing the following formula: [formula]
IC50 values for each compound are calculated by non-linear regression analysis using customized software utilizing the JUMP statistical package.
For the cell viability studies, the viabilities (PI exclusion) of pooled duplicate wells were determined and the results expressed as % change from “vehicle positive control”.

Row | SMILES | IC50 (MMP-13) [nM] | inhibition at 3 µM (THP-1 cells) [%]
1 | CC#CCOc1ccc([S+]([O-])CC2(C(=O)NO)CCN(C(=O)OC(C)(C)C)CC2)cc1 (stereo not shown) [Example 32, tert-Butyl-4-({[4-(2-butynyloxy)phenyl]sulfinyl}methyl)-4-[(hydroxyamino)-carbonyl]-1-piperidinecarboxylate] | 2750 | 0
2 | CC#CCOc1ccc([S+]([O-])CC2(C(=O)NO)CCNCC2)cc1 (stereo not shown) [Example 33, 4-[[[4-(2-Butynyloxy)phenyl]sulfinyl]methyl]-N-hydroxy-4-piperidinecarboxamide] | ~10000 | 8
3 | CC#CCOc1ccc(S(=O)(=O)CC2(C(=O)NO)CCN(C(C)=O)CC2)cc1 [Example 36, 1-Acetyl-4-[[[4-(2-butynyloxy)phenyl]sulfonyl]methyl]-N-hydroxy-4-piperidinecarboxamide] | 380 | 58
4 | CC#CCOc1ccc(S(=O)(=O)CC2(C(=O)NO)CCN(C(=O)C3(C)COC(C)(C)OC3)CC2)cc1 [Example 42, 4-({[4-(2-Butynyloxy)phenyl]sulfonyl}methyl)-N-hydroxy-1-[(2,2,5-trimethyl-1,3-dioxan-5-yl)carbonyl]-4-piperidinecarboxamide] | 1630 | 78
5 | CC#CCOc1ccc(S(=O)(=O)CC2(C(=O)NO)CCN(C(=O)C(C)(CO)CO)CC2)cc1 [Example 43, 4-({[4-(2-Butynyloxy)phenyl]sulfonyl}methyl)-N-hydroxy-1-[3-hydroxy-2-(hydroxymethyl)-2-methylpropanoyl]-4-piperidinecarboxamide] | 1640 | 66
6 | CC#CCOc1ccc(S(=O)(=O)CC2(C(=O)NO)CCN(C(=N)N)CC2)cc1 [Example 44] | 2380 | 49
7 | CC#CCOc1ccc(S(=O)(=O)CC2(C(=O)NO)CCN(CC#CCO)CC2)cc1 [Example 45] | 423 | 48
8 | CC#CCOc1ccc(S(=O)(=O)C2(C(=O)NO)CCN(C(=O)N3CCCC3)CC2)cc1 [Example 67, 4-(4-But-2-ynyloxybenzenesulfonyl)-N-hydroxy-1-(pyrrolidine-1-carbonyl)-4-piperidinecarboxamide] | 345 | 18
9 | CC#CCOc1ccc(S(=O)(=O)C2(C(=O)NO)CCN(C(=O)OCC)CC2)cc1 [Example 68, Ethyl 4-(4-but-2-ynyloxybenzenesulfonyl)-4-[(hydroxyamino)-carbonyl]-1-piperidinecarboxylate] | 503 | 10
10 | CC#CCOc1ccc(S(=O)(=O)C2(C(=O)NO)CCN(S(=O)(=O)C(F)(F)F)CC2)cc1 [Example 69, 4-(4-But-2-ynyloxybenzenesulfonyl)-N-hydroxy-1-[(trifluoromethyl)-sulfonyl]-4-piperidinecarboxamide] | 499 | 14
11 | CC#CCOc1ccc(S(=O)(=O)C2(C(=O)NO)CCN(S(=O)(=O)c3ccc(OC)cc3)CC2)cc1 [Example 72, 4-(4-but-2-ynyloxybenzenesulfonyl)-N-hydroxy-1-[(4-methoxyphenyl)-sulfonyl]-4-piperidinecarboxamide] | 369 | 56
12 | CC#CCOc1ccc(S(=O)(=O)C2(C(=O)NO)CCN(C(=O)C(C)(CO)CO)CC2)cc1 [Example 74, 4-(4-But-2-ynyloxybenzenesulfonyl)-N-hydroxy-1-[3-hydroxy-2-(hydroxymethyl)-2-methylpropanoyl]-4-piperidinecarboxamide] | 287 | 39
13 | CC#CCOc1ccc(S(=O)(=O)C2(C(=O)NO)CCN(C(=O)OC(C)(C)C)CC2)cc1 [Example 75, Tert-butyl 4-{[4-(2-butynyloxy)phenyl]sulfonyl}-4-[(hydroxyamino)carbonyl-]-1-piperidinecarboxalate] | 284 | -4
14 | CC#CCOc1ccc(S(=O)(=O)C2(C(=O)NO)CCNCC2)cc1 [Example 76, 4-{[4-(2-butynyloxy)phenyl]sulfonyl}-N-hydroxy-4-piperidinecarboxamide hydrochloride] | 4020 | 26
15 | CC#CCOc1ccc(S(=O)(=O)C2(C(=O)NO)CCN(Cc3ccc(C(=O)OC)cc3)CC2)cc1 [Example 77, hydrochloride] | 349 | 52

The next lines start with results.

Row | IC50 (MMP-13) [nM] | SMILES | inhibition at 3 µM (THP-1 cells) [%]
16 | 102 | CC#CCOc1ccc(S(=O)(=O)CC2(C(=O)NO)CCN(C(=O)OC(C)(C)C)CC2)cc1 [Example 34, tert-Butyl-4-({[4-(but-2-ynyloxy)phenyl]sulfonyl}methyl)-4-[(hydroxyamino)-carbonyl]piperidine-1-carboxylate] | 68
17 | 279 | CC#CCOc1ccc(S(=O)(=O)CC2(C(=O)NO)CCN(C(=O)NC(C)(C)C)CC2)cc1 [Example 38] | 53
18 | 36 | CC#CCOc1ccc(S(=O)(=O)CC2(C(=O)NO)CCN(C(=O)OCc3ccccc3)CC2)cc1 [Example 40, Benzyl 4-({[4-(2-butynyloxy)phenyl]sulfonyl}methyl)-4-[(hydroxyamino)-carbonyl]-1-piperidinecarboxylate] | 41
19 | 254 | CC#CCOc1ccc(S(=O)(=O)CC2(C(=O)NO)CCN(Cc3ccccc3)CC2)cc1 [Example 41] | 60
20 | 136 | CC#CCOc1ccc(S(=O)(=O)C2(C(=O)NO)CCN(C(C)=O)CC2)cc1 [Example 64, 1-Acetyl-4-(4-but-2-ynyloxybenzenesulfonyl)piperidine-4-carboxylic acid hydroxamide] | 30
21 | 105 | CC#CCOc1ccc(S(=O)(=O)C2(C(=O)NO)CCN(C(=O)c3ccccc3)CC2)cc1 [Example 65, 1-Benzoyl-4-(4-but-2-ynyloxybenzenesulfonyl)piperidine-4-carboxylic acid hydroxamide] | 3
22 | 81 | CC#CCOc1ccc(S(=O)(=O)C2(C(=O)NO)CCN(C(=O)c3ccc(OC)cc3)CC2)cc1 [Example 66, 1-(4-Methoxybenzoyl)-4-(4-but-2-ynyloxybenzenesulfonyl)piperidine-4-carboxylic acid hydroxamide] | 73
23 | 113 | CC#CCOc1ccc(S(=O)(=O)C2(C(=O)NO)CCN(C(=O)c3cccnc3)CC2)cc1 [Example 70, 4-(4-But-2-ynyloxybenzenesulfonyl)-N-hydroxy-1-(3-pyridinylcarbonyl)-4-piperidinecarboxamide] | 62
24 | 183 | CC#CCOc1ccc(S(=O)(=O)C2(C(=O)NO)CCN(C(=O)c3cccs3)CC2)cc1 [Example 71, 4-(4-but-2-ynyloxybenzenesulfonyl)-N-hydroxy-1-(2-thienylcarbonyl)-4-piperidinecarboxamide] | 14
25 | 73.7 | CC#CCOc1ccc(S(=O)(=O)C2(C(=O)NO)CCN(Cc3ccc(C(=O)O)cc3)CC2)cc1 [Example 78, 4-({4-{[4-(2-butynyloxy)phenyl]sulfonyl}-4-[(hydroxyamino)-carbonyl]-1-piperidinyl}methyl)benzoic acid hydrochloride] | 64
26 | 50.6 | CC#CCOc1ccc(S(=O)(=O)C2(C(=O)NO)CCN(Cc3ccc(C(N)=O)cc3)CC2)cc1 [Example 79, 1-[4-(Aminocarbonyl)benzyl]-4-{[4-(2-butynyloxy)phenyl]sulfonyl}-N-hydroxy-4-piperidinecarboxamide hydrochloride] | 83
